# Test results taken from patent publication US7572809B2, “Isoquinoline aminopyrazole derivatives” (Hoffmann-La Roche Inc., priority 2005, dated 2009).
# Test system: HCT 116 cells
# Assay: Viability assay in HCT 116 cells (CellTiter-Glo)
# Type: cell-based
# Settings: 120 h; HCT 116 human colon carcinoma cells, 5 days incubation
# Method: Viability Assay in HCT 116 Cells
# A viability assay was performed using the CellTiter-Glo® Luminescent Cell Viability Assay (see Promega Corporation's Technical Bulletin No. 288, pp. 1-11 [revised February, 2004] which is hereby incorporated by reference in its entirety). This assay is a homogeneous method of determining the number of viable cells in culture based on quantitation of the ATP present, an indicator of metabolically active cells. The assay is designed for use with multiwell formats, making it ideal for automated high-throughput screening (HTS), cell proliferation and cytotoxicity assays. The homogeneous assay procedure involves adding a single reagent (containing luciferase, luciferan substrate, and buffer) directly to cells cultured in serum-supplemented medium. Cell washing, removal of medium and multiple pipetting steps are not required. The system detects as few as 15 cells/well in a 384-well format in 10 minutes after adding reagent and mixing.
# The homogeneous “add-mix-measure” format results in cell lysis and generation of a luminescent signal proportional to the amount of ATP present. The amount of ATP is directly proportional to the number of cells present in culture. The above-referenced assay generates a “glow-type” luminescent signal, produced by the luciferase reaction, which has a half-life generally greater than five hours, depending on cell type and medium used. The extended half-life eliminates the need to use reagent injectors and provides flexibility for continuous or batch mode processing of multiple plates. The unique homogeneous format avoids errors that may be introduced by other ATP measurement methods that require multiple steps.
# HCT 116 cells (human colon carcinoma, ATCC-No. CCl-247) were cultivated in RPMI 1640 medium with GlutaMAX™ I (cell culture media that contains L-Alanyl-L-Glutamine [a stabilized form/source of L-Glutamine] from Invitrogen, Cat-No. 61870-010), 5% Fetal Calf Serum (FCS, Sigma Cat-No. F4135 (FBS)); 100 Units/ml penicillin/100 μg/ml streptomycin (=Pen/Strep from Invitrogen Cat. No. 15140). For the assay the cells were seeded in 384 well plates, 1000 cells per well, in the same medium. The next day the test compounds were added in various concentrations ranging from 30 μM to 0.0015 μM (10 concentrations, 1:3 diluted). After 5 days the viability assay was performed according to the instructions of the manufacturer. In brief: the cell-plate was equilibrated to room temperature for approximately 30 minutes and then the CellTiter-Glo™ reagent (which contains luciferase, luciferan substrate, and buffer) was added. The contents were carefully mixed for 15 minutes to induce cell lysis. After 45 minutes the luminescent signal was measured in Victor 2, (scanning multiwell spectrophotometer, Wallac).
# 1st. Day: • Medium: RPMI 1640 with GlutaMAX™ I (Invitrogen, Cat-No. 61870), 5% FCS (Sigma Cat.-No. F4135), Pen/Strep (Invitrogen, Cat No. 15140). • HCT116 (ATCC-No. CCl-247): 1000 cells in 60 μl per well of 384 well plate (Greiner 781098, μClear-plate white) • After seeding incubate plates 24 h at 37° C., 5% CO2 2nd. Day: Induction (Treatment with Compounds, 10 Concentrations):
# In order to achieve a final concentration of 30 μM as highest concentration 3.5 μl of 10 mM compound stock solution were added directly to 163 μl media. Then step e) of the dilution procedure described below, was followed.
# In order to achieve the second highest to the lowest concentrations, a serial dilution with dilution steps of 1:3 was followed according to the procedure (a-e) as described here below: a) for the second highest concentration add 10 μl of 10 mM stock solution of compound to 20 μl dimethylsulfoxide (DMSO) b) dilute 8×1:3 (always 10 μl to 20 μl DMSO) in this DMSO dilution row (results in 9 wells with concentrations from 3333.3 μM to 0.51 μM) c) dilute each concentration 1:47.6 (3.5 μl compound dilution to 163 μl media) […]
row,SMILES,IC50 [µM]
1,"Cc1cc(Nc2cc3ccccc3c(Oc3ccccc3)n2)n[nH]1 [Example 11, (5-Methyl-1H-pyrazol-3-yl)-(1-phenoxy-isoquinolin-3-yl)-amine]",1.83
2,"Cc1cc(Nc2cc3ccccc3c(OCc3ccccc3)n2)n[nH]1 [Example 12, (1-Benzyloxy-isoquinolin-3-yl)-(5-methyl-1H-pyrazol-3-yl)-amine]",3.32
3,"Cc1cc(Nc2cc3ccccc3c(Oc3ccc(Cl)cc3)n2)n[nH]1 [Example 16, [1-(4-Chloro-phenoxy)-isoquinolin-3-yl]-(5-methyl-1H-pyrazol-3-yl)-amine]",1.93
4,"Cc1cc(Nc2cc3ccccc3c(Oc3ccccc3C)n2)n[nH]1 [Example 21, (5-Methyl-1H-pyrazol-3-yl)-(1-o-tolyloxy-isoquinolin-3-yl)-amine]",5.67
5,"Cc1cc(Nc2cc3ccccc3c(Oc3cccc(C#N)c3)n2)n[nH]1 [Example 28, 3-[3-(5-Methyl-1H-pyrazol-3-ylamino)-isoquinolin-1-yloxy]-benzonitrile]",0.999
6,"Cc1cc(Nc2cc3ccccc3c(OC3CCCCC3)n2)n[nH]1 [Example 33, (1-Cyclohexyloxy-isoquinolin-3-yl)-(5-methyl-1H-pyrazol-3-yl)-amine]",3.24
7,"COc1ccc2c(Oc3ccc(C#N)cc3)nc(Nc3cc(C)[nH]n3)cc2c1 [Example 39, 4-[3-(5-Methyl-1H-pyrazol-3-ylamino)-6-methoxy-isoquinolin-1-yloxy]-benzonitrile]",1.38
8,"COc1ccc2c(OCCN3CCOCC3)nc(Nc3cc(C)[nH]n3)cc2c1 [Example 53, (5-Methyl-1H-pyrazol-3-yl)-[1-(2-morpholin-4-yl-ethoxy)-6-methoxy-isoquinolin-3-yl]-amine]",3.5
9,"COc1ccc2c(OC(C)C)nc(Nc3cc(C)[nH]n3)cc2c1 [Example 56, (1-Isopropoxy-6-methoxy-isoquinolin-3-yl)-(5-methyl-1H-pyrazol-3-yl)-amine]",0.636
10,"COc1cccc2c(Oc3ccc(C)cc3)nc(Nc3cc(C)[nH]n3)cc12 [Example 67, (5-Methyl-1H-pyrazol-3-yl)-(1-p-tolyloxy-5-methoxy-isoquinolin-3-yl)-amine]",1.37
11,"COc1ccc2cc(Nc3cc(C)[nH]n3)nc(Oc3ccc(Cl)cc3)c2c1 [Example 77, [1-(4-Chloro-phenoxy)-7-methoxy-isoquinolin-3-yl]-(5-methyl-1H-pyrazol-3-yl)-amine]",1.94
12,"COc1ccc2c(Oc3ccc(F)cc3)nc(Nc3cc(C)[nH]n3)cc2c1OC [Example 94, [1-(4-Fluoro-phenoxy)-5,6-dimethoxy-isoquinolin-3-yl]-(5-methyl-1H-pyrazol-3-yl)-amine]",2.54
13,"COc1cc2cc(Nc3cc(C)[nH]n3)nc(OC3CCC3)c2cc1OC [Example 125, (1-Cyclobutoxy-6,7-dimethoxy-isoquinolin-3-yl)-(5-methyl-1H-pyrazol-3-yl)-amine]",0.51
14,"Cc1cc(Nc2cc3ccccc3c(-c3ccccc3)n2)n[nH]1 [Example 131, (5-Methyl-1H-pyrazol-3-yl)-(1-phenyl-isoquinolin-3-yl)-amine]",3.93
15,"Cc1cc(Nc2cc3ccccc3c(-c3ccc(Cl)cc3)n2)n[nH]1 [Example 140, [1-(4-Chloro-phenyl)-isoquinolin-3-yl]-(5-methyl-1H-pyrazol-3-yl)-amine]",2.61
16,"Cc1cc(Nc2cc3ccccc3c(-c3csc4ccccc34)n2)n[nH]1 [Example 159, (1-Benzo[b]thiophen-3-yl-isoquinolin-3-yl)-(5-methyl-1H-pyrazol-3-yl)-amine]",1.9

# More lines, now with the values ahead:
row,IC50 [µM],SMILES
1,5.31,"Cc1cc(Nc2cc3ccccc3c(-c3cnn(C)c3)n2)n[nH]1 [Example 164, (5-Methyl-1H-pyrazol-3-yl)-[1-(1-methyl-1H-pyrazol-4-yl)-isoquinolin-3-yl]-amine]"
2,3.44,"COc1ccc2c(-c3cn[nH]c3)nc(Nc3cc(C)[nH]n3)cc2c1 [Example 194, (5-Methyl-1H-pyrazol-3-yl)-[1-(1H-pyrazol-4-yl)-6-methoxy-isoquinolin-3-yl]-amine]"
3,1.41,"COc1cccc2c(-c3ccccc3)nc(Nc3cc(C)[nH]n3)cc12 [Example 202, (5-Methoxy-1-phenyl-isoquinolin-3-yl)-(5-methyl-1H-pyrazol-3-yl)-amine]"
4,3.17,"FC(F)(F)c1ccc(-c2nc(Nc3cc[nH]n3)cc3ccccc23)cc1 [Example 220, (1H-Pyrazol-3-yl)-[1-(4-trifluoromethyl-phenyl)-isoquinolin-3-yl]-amine]"
5,3.87,"COc1ccc2c(-c3ccc(C(C)=O)cc3)nc(Nc3cc[nH]n3)cc2c1 [Example 252, 1-{4-[6-Methoxy-3-(1H-pyrazol-3-ylamino)-isoquinolin-1-yl]-phenyl}-ethanone]"
6,1.54,"COc1ccc2c(-c3ccc(C)cc3)nc(Nc3cc[nH]n3)cc2c1 [Example 263, (6-Methoxy-1-p-tolyl-isoquinolin-3-yl)-(1H-pyrazol-3-yl)-amine]"
7,1.29,"COc1ccc2c(Nc3ccncc3)nc(Nc3cc(C)[nH]n3)cc2c1 [Example 288, 6-Methoxy-N^3-(5-methyl-1H-pyrazol-3-yl)-N^1-pyridin-4-yl-isoquinoline-1,3-diamine]"
8,1.79,"Cc1cc(Nc2cc3ccccc3c(Nc3cccc(Cl)c3)n2)n[nH]1 [Example 294, N^1-(3-Chloro-phenyl)-N^3-(5-methyl-1H-pyrazol-3-yl)-isoquinoline-1,3-diamine]"
9,1.53,"COc1cccc(-c2nc(Nc3cc(C)[nH]n3)cc3cc(OCCN4CCOCC4)ccc23)c1 [Example 300, [1-(3-Methoxy-phenyl)-6-(2-morpholin-4-yl-ethoxy)-isoquinolin-3-yl]-(5-methyl-1H-pyrazol-3-yl)-amine]"
10,3.07,"COCCCNC(=O)c1ccc2c(-c3ccc(F)cc3F)nc(Nc3cc(C)[nH]n3)cc2c1 [Example 302, 1-(2,4-Difluoro-phenyl)-3-(5-methyl-1H-pyrazol-3-ylamino)-isoquinoline-6-carboxylic acid (3-methoxy-propyl)-amide]"
11,1.57,"COc1cccc(Sc2nc(Nc3cc(C)[nH]n3)cc3ccccc23)c1 [Example 306, [1-(3-Methoxy-phenylsulfanyl)-isoquinolin-3-yl]-(5-methyl-1H-pyrazol-3-yl)-amine]"
12,3.76,"Cc1cc(Nc2cc3ccccc3c(Sc3ccc(F)cc3)n2)n[nH]1 [Example 312, [1-(4-Fluoro-phenylsulfanyl)-isoquinolin-3-yl]-(5-methyl-1H-pyrazol-3-yl)-amine]"
13,3.11,"COc1ccc2c(C(=O)NCC3CC3)nc(Nc3cc(C)[nH]n3)cc2c1 [Example 318, 6-Methoxy-3-(5-methyl-1H-pyrazol-3-ylamino)-isoquinoline-1-carboxylic acid cyclopropylmethyl-amide]"
